This is an account of results in patent US6727245B2, “Heterobicyclic derivatives” (Fujisawa Pharmaceutical Co., Ltd., priority 1994, dated 2004).

For orientation: melting point means the temperature, or range, at which the solid turns liquid. The compound `COc1ccccc1NC(=O)Nc1cccc(-n2c(=O)c(Cc3cccnc3)nc3cccnc32)c1` [Example 50(4), 4-[3-[3-(2-Methoxyphenyl)ureido]phenyl]-2-(3-pyridylmethyl)-3-oxo-3,4-dihydropyrido[2,3-b]pyrazine] registered a melting point of 163 to 169 °C.
Under `COc1ccc2cc(-c3cccc(-n4c(=O)c(Cc5cccnc5)nc5cccnc54)c3)ccc2c1` [Example 54(24), 4-[3-(6-Methoxy-2-naphthyl)phenyl]-2-(3-pyridylmethyl)-3-oxo-3,4-dihydropyrido[2,3-b]pyrazine] stands 228 to 231 °C; under `COC(=O)c1ccc2c(ccn2-c2cccc(-n3c(=O)c(Cc4cccnc4)nc4cccnc43)c2)c1` [Example 54(25), 4-[3-(5-Methoxycarbonylindol-1-yl)phenyl]-2-(3-pyridylmethyl)-3-oxo-3,4-dihydropyrido[2,3-b]pyrazine], 193 to 197 °C.
Under `O=c1c(Cc2cccnc2)nc2cccnc2n1-c1cccc(-c2cnc3ccccc3c2)c1` [Example 54(26), 4-[3-(3-Quinolyl)phenyl]-2-(3-pyridylmethyl)-3-oxo-3,4-dihydropyrido[2,3-b]pyrazine] stands 237 °C.
`COc1ccc(-c2cccc(-n3c(=O)c(Cc4cccnc4)nc4cccnc43)c2)cc1OC1CCCC1` [Example 54(27), 4-[3-(3-Cyclopentyloxy-4-methoxyphenyl)phenyl]-2-(3-pyridylmethyl)-3-oxo-3,4-dihydropyrido[2,3-b]pyrazine] displayed a melting point of 109 to 111 °C.
Under `COC(=O)c1cccc(-c2cccc(-n3c(=O)c(Cc4cccnc4)nc4cccnc43)c2)c1` [Example 54(28), 4-[3-(3-Methoxycarbonylphenyl)phenyl]-2-(3-pyridylmethyl)-3-oxo-3,4-dihydropyrido[2,3-b]pyrazine] stands 179 to 181 °C; under `COC(=O)/C=C/c1cccc(-n2c(=O)c(Cc3cccnc3)nc3cccnc32)c1` [Example 54(29), 4-[3-[ (E)-2-Methoxycarbonylvinyl]phenyl]-2-(3-pyridylmethyl)-3-oxo-3,4-dihydropyrido[2,3-b]pyrazine], 180 to 181 °C; under `O=c1c(Cc2cccnc2)nc2cccnc2n1-c1cccc(-c2cncc3ccccc23)c1` [Example 54(30), 4-[3-(4-Isoquinolyl)phenyl]-2-(3-pyridylmethyl)-3-oxo-3,4-dihydropyrido[2,3-b]pyrazine], 157 to 163 °C.
As for `CC(=O)Nc1cccc(-c2cccc(-n3c(=O)c(Cc4cccnc4)nc4cccnc43)c2)c1` [Example 54(31), 4-[3-(3-Acetamidophenyl)phenyl]-2-(3-pyridylmethyl)-3-oxo-3,4-dihydropyrido[2,3-b]pyrazine], the figure is 188 to 194 °C; as for `O=c1c(Cc2ccccc2)nc2cccnc2n1-c1cccc(NS(=O)(=O)c2ccccc2)c1` [Example 68(13), 2-Benzyl-4-(3-phenylsulfonylaminophenyl)-3-oxo-3,4-dihydropyrido[2,3-b]pyrazine], 199 to 211 °C.
Compound `O=C(Nc1ccccc1)Nc1cccc(-n2c(=O)c(Cc3ccccc3)nc3ccc(Sc4ccccc4)nc32)c1` [Example 68(14), 2-Benzyl-6-phenylthio-4-[3-(3-phenylureido)phenyl]-3-oxo-3,4-dihydropyrido[2,3-b]pyrazine] had a melting point of 183 to 185 °C.
As for `O=c1c(Cc2ccccc2)nc2cccnc2n1-c1cccc(-n2cccc2)c1` [Example 68(15), 2-Benzyl-4-[3-(pyrrol-1-yl)phenyl]-3-oxo-3,4-dihydropyrido[2,3-b]pyrazine], the figure is 169 to 170 °C; as for `O=c1c(Cc2ccc(O)cc2)nc2cccnc2n1-c1cccc(-n2cccc2)c1` [Example 68(16), 2-(4-Hydroxybenzyl)-4-[3-(pyrrol-1-yl)phenyl]-3-oxo-3,4-dihydropyrido[2,3-b]pyrazine], 263 °C.
